From patent US20090239846A1, “Novel Compounds” (Glaxo Group Limited, priority 2005, published 2009)
Counter-ions that a name gives are not always drawn. Like-named read-outs stand apart in the source and are kept apart here.

Tested on: IL-8 production by human neutrophils
Experiment: TNF-stimulated IL-8 production from human neutrophils
Format: cell-based
Settings: Neutrophil
[1] = bound, not more than 50% inhibition at 100 nM, read-out: IC50

Protocol: TNF-Stimulated IL-8 Production from Human Neutrophils The effect of test compounds on TNF-stimulated IL8 production by human neutrophils is measured as follows. Neutrophils are prepared from blood obtained from consenting donors, using standard methods. Blood is collected in heparinized syringes and layered over histopaque (30 ml/20 ml). Following centrifugation, the red cell pellet is resuspended in PBS and purified over a dextran gradient. Red blood cells are lysed with water for 40 sec, remaining granulocytes collected by centrifugation and resuspended at 1.5×10̂6 cells/ml. Cells are added (0.5-1 ml) to 48 well plates already containing compound at 1000×final concentration in neat DMSO or 10% DMSO in RPMI1640 with 10% FBS. TNF (final concentration 100 ng/ml) is used as the stimulus. Cells incubated for approximately 20 hrs at 37° C., 5% CO2. Levels of IL-8 in the cell free supernatant are determined by sandwich ELISA, and inhibition relative to a control with DMPO but no compound is calculated.

SMILES	IC50 [1]	also measured
Cc1ccc(C(=O)NC(C)C)cc1-c1nc(NCCN2CCN(Cc3ccccc3)CC2)nc2c1CNC(=O)N2c1c(F)cccc1F [Example 197, 3-[8-(2,6-difluorophenyl)-7-oxo-2-({2-[4-(phenylmethyl)-1-piperazinyl]ethyl}amino)-5,6,7,8-tetrahydropyrimido[4,5-d]pyrimidin-4-yl]-4-methyl-N-(1-methylethyl)benzamide trifluoroacetate]	> 100 nM	–
CCCNC(=O)c1ccc(C)c(-c2nc(NCCNC(C)C)nc3c2CNC(=O)N3c2c(F)cccc2F)c1 [Example 62, 3-[8-(2,6-difluorophenyl)-2-({2-[(1-methylethyl)amino]ethyl}amino)-7-oxo-5,6,7,8-tetrahydropyrimido[4,5-d]pyrimidin-4-yl]-4-methyl-N-propylbenzamide]	> 100 nM	–
CCCNC(=O)c1ccc(C)c(-c2nc(NCCCNCC)nc3c2CNC(=O)N3c2c(F)cccc2F)c1 [230(b), 3-(8-(2,6-difluorophenyl)-2-{[3-(ethylamino)propyl]amino}-7-oxo-5,6,7,8-tetrahydropyrimido[4,5-d]pyrimidin-4-yl)-4-methyl-N-propylbenzamide trifluoroacetate]	> 100 nM	–
Cc1ccc(C(=O)NC(C)C)cc1-c1nc(NCCCNC(C)(C)C)nc2c1CNC(=O)N2c1c(F)cccc1F [Example 50, 3-[8-(2,6-difluorophenyl)-2-({3-[(1,1-dimethylethyl)amino]propyl}amino)-7-oxo-5,6,7,8-tetrahydropyrimido[4,5-d]pyrimidin-4-yl]-4-methyl-N-(1-methylethyl)benzamide]	> 100 nM	–
CCCNC(=O)c1ccc(C)c(-c2nc(NCCCNC(C)(C)C)nc3c2CNC(=O)N3c2c(F)cccc2F)c1 [Example 65, 3-[8-(2,6-difluorophenyl)-2-({3-[(1,1-dimethylethyl)amino]propyl}amino)-7-oxo-5,6,7,8-tetrahydropyrimido[4,5-d]pyrimidin-4-yl]-4-methyl-N-propylbenzamide]	> 100 nM	–
CN(C)CCNc1nc(-c2cccc(C(=O)N(C)C)c2)c2c(n1)N(c1c(F)cccc1F)C(=O)NC2 [Example 90, 3-(8-(2,6-difluorophenyl)-2-{[2-(dimethylamino)ethyl]amino}-7-oxo-5,6,7,8-tetrahydropyrimido[4,5-d]pyrimidin-4-yl)-N,N-dimethylbenzamide]	> 100 nM	–
Cc1ccc(C(=O)NC(C)C)cc1-c1nc(N2CCC(N3CCOCC3)CC2)nc2c1CNC(=O)N2c1c(F)cccc1F [Example 71, 3-{8-(2,6-difluorophenyl)-2-[4-(4-morpholinyl)-1-piperidinyl]-7-oxo-5,6,7,8-tetrahydropyrimido[4,5-d]pyrimidin-4-yl}-4-methyl-N-(1-methylethyl)benzamide]	–	IC50 (bound, screened at a different top concentration, read-out: IC50): > 1 nM
CNC(=O)c1ccc(-c2nc(NCCN(C)C)nc3c2CNC(=O)N3c2c(F)cccc2F)c(C)c1 [Example 109, 4-(8-(2,6-difluorophenyl)-2-{[2-(dimethylamino)ethyl]amino}-7-oxo-5,6,7,8-tetrahydropyrimido[4,5-d]pyrimidin-4-yl)-N,3-dimethylbenzamide trifluoroacetate]	> 100 nM	–
Cc1c(F)cc(C(=O)Nc2ccc(F)cc2)cc1-c1nc(NCCN(C)C)nc2c1CNC(=O)N2c1c(F)cccc1F [Example 115, 3-(8-(2,6-difluorophenyl)-2-{[2-(dimethylamino)ethyl]amino}-7-oxo-5,6,7,8-tetrahydropyrimido[4,5-d]pyrimidin-4-yl)-5-fluoro-N-(4-fluorophenyl)-4-methylbenzamide]	–	IC50 (ends given as 'less than' / 'greater than', read-out: IC50, broad range of data upon multiple runs): 1 to 100 nM
CCN(CC)CCCNc1nc(-c2cc(C(=O)O)ccc2C)c2c(n1)N(c1c(F)cccc1F)C(=O)NC2 [228(b), 3-[2-{[3-(diethylamino)propyl]amino}-8-(2,6-difluorophenyl)-7-oxo-5,6,7,8-tetrahydropyrimido[4,5-d]pyrimidin-4-yl]-4-methylbenzoic acid]	> 100 nM	–
Cc1ccc(C(=O)NCC(C)(C)C)cc1-c1nc(NCCN(C)C)nc2c1CNC(=O)N2c1c(F)cccc1F [Example 125, 3-(8-(2,6-difluorophenyl)-2-{[2-(dimethylamino)ethyl]amino}-7-oxo-5,6,7,8-tetrahydropyrimido[4,5-d]pyrimidin-4-yl)-N-(2,2-dimethylpropyl)-4-methylbenzamide]	> 100 nM	–
Cc1ccc(C(=O)NC(C)C)cc1-c1nc(N(C)CCCN(C)CCCN(C)C)nc2c1CNC(=O)N2c1c(F)cccc1F [Example 116, 3-{8-(2,6-difluorophenyl)-2-[{3-[[3-(dimethylamino)propyl]-(methyl)amino]propyl}(methyl)amino]-7-oxo-5,6,7,8-tetrahydropyrimido[4,5-d]pyrimidin-4-yl}-4-methyl-N-(1-methylethyl)benzamide]	> 100 nM	–
CCCNC(=O)c1ccc(C)c(-c2nc(NCCC(=O)O)nc3c2CNC(=O)N3c2c(F)cccc2F)c1 [Example 229, N-(8-(2,6-difluorophenyl)-4-{2-methyl-5-[(propylamino)carbonyl]phenyl}-7-oxo-5,6,7,8-tetrahydropyrimido[4,5-d]pyrimidin-2-yl)-β-alanine]	> 100 nM	–
